Test results reported in ChEMBL document CHEMBL1150772, “Chemometric and chemoinformatic analyses of anabolic and androgenic activities of testosterone and dihydrotestosterone analogues” (Bioorg Med Chem, 2008).

Test: physchem
Details: octanol/water
Description: Lipophilicity, log P of the compound

SMILES | logP
CN(C)CCN/C=C1\C[C@@]2(C)[C@@H](CC[C@@H]3[C@@H]2CC[C@@]2(C)[C@H]3CC[C@]2(C)O)CC1=O | 2.53
C[C@]12CC/C(=N/NC(N)=O)C[C@@H]1CC[C@@H]1[C@@H]2CC[C@]2(C)[C@@H](O)CC[C@@H]12 | 3.45
CC(=O)O[C@H]1CC[C@H]2[C@@H]3CC[C@H]4C[C@H]5[C@@H](C[C@]4(C)[C@H]3CC[C@]12C)C5(F)F | 4.77
C[C@]12C/C(=C\N)C(=O)C[C@@H]1CC[C@@H]1[C@@H]2CC[C@@]2(C)[C@H]1CC[C@]2(C)O | 2.8
C[C@@H]1CC2=CC(=O)CC[C@]2(C)[C@H]2CC[C@]3(C)[C@@H](O)CC[C@H]3[C@H]12 | 4.17
C[C@]12C[C@@H]3[C@H](C[C@@H]1CC[C@@H]1[C@@H]2CC[C@@]2(C)[C@H]1CC[C@]2(C)O)C3(F)F | 4.72
CC(=O)O[C@H]1CC[C@H]2[C@@H]3CC[C@H]4C[C@@H]5[C@H](C[C@]4(C)[C@H]3CC[C@]12C)C5(F)F | 4.77
CCCO[C@@]1(C)CC[C@H]2[C@@H]3CC[C@H]4CC(=O)[C@H](C)C[C@]4(C)[C@H]3CC[C@@]21C | 5.66
C[C@@H]1C[C@@H]2[C@H](CC[C@]3(C)[C@@H](O)CC[C@@H]23)[C@@]2(C)CCC(=O)C[C@H]12 | 4.26
C[C@]12CC[C@H]3[C@@H](C[C@@H](F)C4=CC(=O)CC[C@@]43C)[C@@H]1CC[C@@H]2O | 3.53
C[C@]12CC[C@H]3[C@@H](CCC4=CC(=O)CC[C@@]43C)[C@@H]1CC[C@@H]2O[Si](C)(C)C | 3.95
C[C@]12CCC(=O)C=C1CC[C@@H]1[C@@H]2[C@@H](O)C[C@@]2(C)[C@H]1CC[C@]2(C)O | 2.93
C[C@]12CCC(=O)C[C@@H]1CC[C@H]1C3=CC[C@H](O)[C@@]3(C)CC[C@@H]12 | 3.5
C[C@]12C[C@H](O)[C@H]3[C@@H](CCC4=CC(=O)CC[C@@]43C)[C@@H]1CC[C@@H]2O | 2.85
COC[C@@H]1C[C@@]2(C)[C@@H](CC[C@@H]3[C@@H]2CC[C@]2(C)[C@@H](O)CC[C@@H]32)CC1=O | 3.77
CCCO[C@@]1(C)CC[C@H]2[C@@H]3C[C@H](C)[C@H]4CC(=O)[C@H](C)C[C@]4(C)[C@H]3CC[C@@]21C | 5.99
CCOC1(O[C@H]2CC[C@H]3[C@@H]4CC[C@H]5CC(=O)CC[C@]5(C)[C@H]4CC[C@]23C)CCCC1 | 6.02
C[C@H]1C/C(=N\O)C[C@@H]2CC[C@@H]3[C@H](CC[C@@]4(C)[C@H]3CC[C@]4(C)O)[C@]21C | 5
C[C@@H]1CC2=CC(=O)CC[C@]2(C)[C@H]2CC[C@]3(C)C(=O)CC[C@H]3[C@H]12 | 4.69
C[C@]12CC[C@H]3[C@@H](CCC4=CC(=O)[C@H](F)C[C@@]43C)[C@@H]1CC[C@@H]2O | 3.86
C[C@]12CC[C@H]3[C@@H](CCC4=CC(=O)CC[C@@]43C)[C@@H]1CC[C@@H]2OC(=O)C(F)Cl (stereo partly drawn) | 4.7
C[C@]12C[C@H](O)CC[C@@H]1CC[C@@H]1[C@@H]2CC[C@@]2(C)[C@H]1CC[C@]2(C)O | 3.8

SMILES | logP
CC(=O)O[C@H]1CC[C@H]2[C@@H]3CCC4=C(Cl)C(=O)CC[C@]4(C)[C@H]3[C@@H](O)C[C@]12C | 2.88
CC(=O)O[C@H]1CC[C@H]2[C@@H]3CCC4=C(O)C(=O)CC[C@]4(C)[C@H]3CC[C@]12C | 3.06
C[C@]12C[C@H]3O[C@H]3C[C@@H]1CC[C@@H]1[C@@H]2CC[C@]2(C)[C@@H](O)CC[C@@H]12 | 3.5
COC1(O[C@H]2CC[C@H]3[C@@H]4CC[C@H]5CC(=O)CC[C@]5(C)[C@H]4CC[C@]23C)CCCC1 | 5.68
CC(=O)O[C@H]1CC[C@H]2[C@@H]3CCC4=CC(=O)CC[C@]4(C)[C@H]3CC[C@]12C | 4.2
CC1=C[C@@]2(C)C(=CC1=O)C=C[C@@H]1[C@@H]2CC[C@@]2(C)[C@H]1CC[C@]2(C)O | 4.01
C[C@]12C[C@@H](F)C(=O)C[C@@H]1CC[C@@H]1[C@@H]2CC[C@]2(C)[C@@H](O)CC[C@@H]12 | 3.96
C[C@H]1C[C@@H]2[C@H](CC[C@@]3(C)[C@H]2CC[C@]3(C)O)[C@@]2(C)CCC(=O)C[C@H]12 | 4.34
CC(=O)O[C@H]1CC[C@H]2[C@@H]3CCC4=C(Cl)C(=O)CC[C@]4(C)[C@H]3CC[C@]12C | 3.87
C[C@H]1C[C@@H]2[C@H](CC[C@]3(C)[C@@H](O)CC[C@@H]23)[C@@]2(C)CCC(=O)C[C@H]12 | 4.26
C[C@]12CC[C@H]3[C@@H](CCC4=CC(=O)CC[C@@]43C)[C@@H]1CC[C@@H]2OC(=O)C(Cl)Cl | 5.04
C[C@]12C[C@@H]3O[C@@H]3C[C@@H]1CC[C@@H]1[C@@H]2CC[C@]2(C)[C@@H](O)CC[C@@H]12 | 4.5
C[C@@H]1C[C@]2(C)C3=CC[C@@]4(C)C(CC[C@]4(C)O)[C@@H]3CC[C@H]2CC1=O (stereo partly drawn) | 4.14
C[C@H]1C[C@@H]2[C@H](CC[C@@]3(C)[C@H]2CC[C@]3(C)O)[C@@]2(C)CCC(=O)C=C12 | 4.24
C[C@]12CCC(=O)C=C1CC[C@@H]1[C@@H]2C(=O)C[C@]2(C)C(=O)CC[C@@H]12 [ADRENOTERONE] | 3.75
C[C@]12CC[C@@H](O)C[C@@H]1CC[C@@H]1[C@@H]2CC[C@]2(C)[C@@H](O)CC[C@@H]12 [ANDROSTANDIOL] | 5.49
C[C@@H]1CC2=CC(=O)CC[C@]2(C)[C@H]2CC[C@@]3(C)[C@@H](CC[C@]3(C)O)[C@H]12 [BOLASTERONE] | 4.24
C[C@@H]1C[C@@]2(C)[C@@H](CC[C@@H]3[C@@H]2CC[C@]2(C)[C@@H](O)CC[C@@H]32)CC1=O [DROMOSTANOLONE] | 4.5
C[C@]12CCC(=O)C[C@@H]1CC[C@@H]1[C@@H]2CC[C@@]2(C)[C@H]1CC[C@]2(C)O [MESTANOLONE] | 4.01
C[C@]12CCC(=O)C=C1CC[C@@H]1[C@@H]2CC[C@@]2(C)[C@H]1CC[C@]2(C)O [METHYLTESTOSTERONE] | 3.91
C[C@]12CC[C@H]3[C@@H](CCC4=CC(=O)CC[C@@]43C)[C@@H]1CC[C@@H]2O [TESTOSTERONE] | 2.53
